The target of assay [1] is T1, NMDA receptor (Rattus norvegicus, UniProt P35439).
T1 construct: endogenous in cells
Put plainly: Patch clamp, inward currents to NMDA in cultured superior colliculus neurones. In kind it is cell-based. As to conditions: for IC50 / IC50 against inward currents to NMDA: NMDA 200 μM; for voltage-dependence of effect: NMDA currents; for Kb: read-out: Kb (Cheng-Prusoff relationship). On the procedure: (§1) Cells were mechanically dissociated in 0.05% DNAase / 0.3% ovomucoid (Sigma) following a 15 minute pre-incubation with 0.66% trypsin / 0.1% DNAase (Sigma). The dissociated cells were then centrifuged at 18G for 10 minutes, resuspended in minimum essential medium (Gibco) and plated at a density of 200,000 cells cm onto poly-L-lysine (Sigma)-precoated plastic petri dishes (Falcon). The cells were nourished with NaHCO3 /HEPES-buffered minimum essential medium supplemented with 5% foetal calf serum and 5% horse serum (Gibco) and incubated at 37° C. with 5%CO2 at 95% humidity. The medium was exchanged completely following inhibition of further glial mitosis with cytosine-β-D-arabinofuranoside (20 μM Sigma) after about 7 days in vitro. Thereafter the medium was exchanged partially twice weekly. […] Moreover, the relatively small neurones (soma 15-20 μm .phi.) are ideally suited to minimise problems of buffered diffusion for concentration clamp experiments.
(§2) Patch clamp recordings were made from these neurones with polished glass electrodes (4-6 m.OMEGA.) in the whole cell mode at room temperature (20°-22° C.) with the aid of an EPC-7 amplifier (List). Test substances were applied by switching channels of a custom made fast superfusion system with a common outflow (10-20 ms exchange times). The contents of the intracellular solution were as follows (mM): CsCl (120), TEACl (20), EGTA (10), MgCl2 (1), CaCl2 (0.2), glucose (10), ATP (2), cAMP (0.25); pH was adjusted to 7.3 with CsOH or HCl. The extracellular solutions had the following basic composition (mM): NaCl (140), KCl (3), CaCl2 (0.2), glucose (10), HEPES (10), sucrose (4.5), tetrodotoxin (TTX 3*10-4). For most experiments glycine (1 μM) was present in all solutions. Experiments to test the glycine-dependence of the tricyclic "pyrido-phtalazin diones" were performed in the continuous presence of increasing concentrations of glycine (1-10 μM).
This effect was mediated at the glycineB site as evidenced by the parallel shift in the concentration-response curves in the presence of increasing glycine concentrations. Thus the Kbs of Mrz 2/502 as assessed according to the Cheng-Prusoff relationship were similar in glycine 1, 3 and 10 μM (80, 124 and 118 nM respectively). […] Choline derivatives had similar potencies to the free acids in vitro (Table14b).

Assay [2] concerns cortical neurones. The assay is described as follows: Excitotoxicity in vitro (NMDA, LDH efflux). As to conditions: for IC50: Rattus norvegicus, Cortical neurone, 0.5 mM NMDA/1 μM glycine, 24 h, read-out: Cytotoxicity in vitro IC50; for neuroprotection in vitro: low μM concentrations. In kind it is cell-based, rat. The method, then: Isolation of cortical neurones was similar to that described for patch clamp recordings except for the use of foetal rats at 17-19 days gestation. Neurones were plated in 24-multiwell (Greiner) at a density of 300,000 cells/well coated with poly-D-lysine 0.025 mg/ml. Cells were cultured in Dulbecco's modified essential medium (DMEM, GIBCO) supplemented with 10% heat inactivated foetal calf serum (GIBCO). Cultures were maintained at 37° C. at 5% CO2. The medium was changed first after one week and then every 3 days by replacing half of the medium with fresh medium. Cultures aged 17 days were used for experiments.
Exposure to EAA was performed in serum-free MEM-N2 medium (Bottenstein 1979) containing 0.5 mM NMDA/1 μM glycine and the drug to be tested. Cells were pre-incubated with drugs and 1 μM glycine for 15 minutes before addition of NMDA. After 24 h the cytotoxic effect was morphologically examined under a phase contrast microscope and biochemically quantitified by measuring the efflux of LDH.
The activity of LDH was determined in the supernatant after 24 h according to the method of Wroblewski and La Due (1955). Briefly, 0.1 ml of the supernatant was added to 0.9 ml sodium-phosphate buffer (pH=7.5) containing sodium pyruvate (22.7 mM) and NADH (0.8 mg/10 ml) at room temperature. The conversion of pyruvate to lactate was recorded at 340 nm over 10 minutes in a Kontron Spectrophotometer.

Assay [3] concerns the target T2, NMDA receptor (Mus musculus, UniProt P35438).
T2 construct: from tissue; host or cells: living mice (albino Swiss males for NMDA and PTZ tests, NMR females for MES)
The assay is described as follows: Pentylenetetrazol (PTZ)-induced convulsions. In kind it is in vivo. As to conditions: ip, 0.25 h, i.p., PTZ 90 mg/kg i.p., read-out: PTZ ID50. On the procedure: (§3) To assess NMDA receptor antagonistic properties of the tested agents by assessing anticonvulsive effects. Additionally the role of organic acid transporters in the elimination from the brain of tested agents was assessed by using an inhibitor, Probenicid, on the duration of anticonvulsive activity.
(§4) Male albino Swiss mice (19-21 g) housed 10-15 per cage were used for the NMDA lethality test (Leander et al., 1988). For pentylenetetrazol (PTZ)-induced convulsions male albino Swiss mice (25-34 g.) housed 40 per cage (58×38×20 cm) were used while in the maximal electroshock (MES) and motor impairment tests NMR female mice (18-28 g) housed 5 per cage were employed. All animals were kept with water and food ad libittum under a 12-h light-dark cycle (light on at 6 a.m.), and at a controlled temperature (20°±0.5° C.). All experiments were performed between 10 a.m. and 5 p.m. Tested agents were injected 15 min. i.p before the induction of convulsions if not stated otherwise (see below). Mrz 2/502 was dissolved in saline added with NaOH. Most other agents were dissolved in the following solution: 0.606 g Tris; 5.0 g. glucose; 0.5 g. Tween 80; and 95 ml water. The choline and tetramethylammonium salts were dissolved in distilled water.
Pentylenetetrazol was injected at a dose of 90 mg/kg (i.p). The presence of general tonic convulsions was then scored for 30 min as this parameter is more sensitive to NMDA receptor antagonists than clonic convulsions. The pharmacological end-point was taken as the presence of tonus in the hind limbs with stretching.

In assay [4] the target is T2, NMDA receptor. Put plainly: NMDA-induced convulsions / lethality test. As to conditions: ip, 0.25 h, i.p., 15 min before induction, read-out: NMDA ID50. In kind it is in vivo. The method, then:
as §3, §4
In the NMDA-induced convulsions test in mice, a dose-response relationship for NMDA was first performed to determine the ED97 dose which was then used for testing of antagonistic properties. After injection of the ED97 dose of NMDA the animals were placed in a small cage (20×28×14 cm) and observed for 20 min. Death preceded by clonic convulsions and by tonic seizures was the pharmacological end-point.

The subject of assay [5] is AMPA receptor. The assay is described as follows: Patch clamp, inward currents to AMPA in cultured superior colliculus neurones. Type of assay: cell-based, rat. The following applies: AMPA 100 μM. The method, then:
as §1, §2
In contrast, three of these potent glycine, antagonists were only very weak antagonists of inward currents to AMPA (100 μM). […] This profile of action, although very weak, is typical for competitive AMPA receptor antagonists which preferentially block the peak non-desensitised state, low affinity state of the receptor (see Parsons et al., 1994).

Setting [6] is: glycine 1 μM, peak currents, read-out: Peak NMDA IC50.
The mark [7] stands for this setting: glycine 1 μM, plateau (steady-state) currents, read-out: Plateau NMDA IC50.
Setting [8] is: peak currents, read-out: IC50 against peak AMPA induced currents.
Setting [9] is: peak currents, read-out: Peak AMPA IC50.
[10] abbreviates: plateau currents, read-out: Plateau AMPA IC50.

Like-named read-outs stand apart in the source and are kept apart here.

Take `O=c1[nH][nH]c(=O)c2nc3ccc(Cl)cc3cc12` [Mrz 2/501]: the IC50 was 2300 nM in assay [1] (setting [6]), 700 nM in assay [1] (setting [7]) and under 5 µM in assay [2]. Besides, the voltage-dependence of effect entry in assay [1] was “not voltage-dependent”. Further, the neuroprotection in vitro result in assay [2] was “effective neuroprotectants”. In addition, the results for the ED50 in assay [3] and in assay [4] were over 40 mg/kg and over 100 mg/kg, respectively.

Take `O=c1[nH]nc(O)c2c1cc1cc(Cl)ccc1[n+]2[O-]` [Mrz 2/502, 8-chloro-4-hydroxy-1-oxo-1,2-dihydropyridazino[4,5-b]-quinoline 5-oxide]: the IC50 in assay [5] (setting [8]) is 25 µM; in assay [5] (setting [9]), 25 µM; in assay [5] (plateau currents, listed as 502, read-out: Plateau AMPA IC50) it was 150 µM; in assay [5] (setting [10]), over 100 µM; in assay [1] (setting [6]), 800 nM; in assay [1] (setting [7]) it was 300 nM. For the same compound, in assay [2], the IC50 is under 5 µM. For the same compound, the “IC50 against inward currents to NMDA” value in assay [1] is recorded as “most potent”. Besides, in assay [1], the voltage-dependence of effect entry was “not voltage-dependent”. Moreover, the Kb was 80 nM in assay [1] (glycine 1 μM), 124 nM in assay [1] (glycine 3 μM) and 118 nM in assay [1] (glycine 10 μM). In addition, the neuroprotection in vitro entry in assay [2] is listed as “effective neuroprotectants”. Also, the ED50 amounted to 8.3 mg/kg in assay [3] and 26 mg/kg in assay [4].

As for `O=c1[nH][nH]c(=O)c2nc3ccc(Br)cc3cc12` [Mrz 2/503], the IC50 in assay [1] (setting [6]) was 1700 nM; in assay [1] (setting [7]), 600 nM; in assay [2], over 20 µM. The ED50 in assay [3] and in assay [4] was over 100 mg/kg in each case.

On to `O=c1[nH]nc(O)c2c1cc1cc(Br)ccc1[n+]2[O-]` [Mrz 2/514, 8-bromo-4-hydroxy-1-oxo-1,2-dihydropyridazino[4,5-b]-quinoline 5-oxide], for which the IC50 is 73 µM in assay [5] (setting [8]); 72.7 µM in assay [5] (setting [9]); 307 µM in assay [5] (plateau currents, listed as 514, read-out: Plateau AMPA IC50); over 100 µM in assay [5] (setting [10]); 500 nM in assay [1] (setting [6]); 200 nM in assay [1] (setting [7]). Besides, in assay [1], the “IC50 against inward currents to NMDA” value was “most potent”. The ED50 in assay [3] amounted to 12.8 mg/kg; in assay [4] it was 99 mg/kg.

As for `O=c1[nH][nH]c(=O)c2nc3cc(Cl)c(Cl)cc3cc12` [Mrz 2/515], the IC50 amounted to 3700 nM in assay [1] (setting [6]) and 900 nM in assay [1] (setting [7]). Also, the ED50 in assay [3] is over 100 mg/kg; in assay [4], 98 mg/kg.

For the compound `O=c1[nH]nc(O)c2c1cc1cc(F)ccc1[n+]2[O-]` [Mrz 2/516, 8-fluoro-4-hydroxy-1-oxo-1,2-dihydropyridazino[4,5-b]-quinoline 5-oxide], the IC50 in assay [5] (setting [8]) is 18 µM; in assay [5] (setting [9]) it was 17.6 µM; in assay [5] (setting [10]) it was over 100 µM; in assay [1] (setting [6]) it was 6300 nM; in assay [1] (setting [7]), 1600 nM. Moreover, the ED50 in assay [3] was 7.9 mg/kg; in assay [4], 40 mg/kg.

On to `O=c1[nH][nH]c(=O)c2nc3ccc(F)cc3cc12` [Mrz 2/519], for which the IC50 is 18000 nM in assay [1] (setting [6]) and 5800 nM in assay [1] (setting [7]). Moreover, the ED50 in assay [3] and in assay [4] was over 100 mg/kg each time.
